This is an account of results in patent US20240024291A1, “Uses of Dihydroorotate Dehydrogenase Inhibitors” (University of Maryland, Baltimore, priority 2022, published 2024).

Each structure is given as a SMILES string.

Assay [1] has as its system 08-387 glioblastoma neurosphere line. Briefly: CellTiter-Glo in vitro proliferation assay. The class given is cell-based, human. The conditions noted are these: for IC50: Homo sapiens. On the procedure:
(§1) A Biospherix X3, hypoxic incubation system, was maintained at 37° C., 1% 02, 5% CO2, and 94% N2 (Biospherix, Ltd—Parish, NY) to conduct in vitro hypoxic experiments. Cells were plated, then incubated in normoxia overnight before transferring the culture dishes to hypoxia for the duration indicated in the main text.
(§2) […] Cell Titer-Glo® Luminescent Cell Viability Assay (Promega, Madison, WI, USA) was performed 72 hours after treatment. Luminescence was determined using a Cytation 5 reader and Gen5 software package (BioTek, Winooski, VT, USA).
(§3) The compound's efficacy was examined against a collection of genetically diverse patient-derived GSC lines in vitro. The IC50 profiles of compound 1 in the seven GSC lines tested were established using the CellTiter-Glo® reagent and calculated with GraphPad software.
(ATP-based viability assays read luminescence as a measure of living cells.)

In assay [2] the test system is 913 glioblastoma neurosphere line. Put plainly: CellTiter-Glo in vitro proliferation assay. The class given is cell-based, human. Here is the method: as §1, §2, §3

A word on the IC50: it is the point on the concentration scale where inhibition reaches its midpoint. A low value points to higher potency. Turning to `CCn1c(CO)nn(-c2cc(O[C@@H](C)C(F)(F)F)c(C(=O)Nc3c(F)cccc3Cl)cc2F)c1=O` [Compound 1, N-(2-chloro-6-fluorophenyl)-4-[4-ethyl-4,5-dihydro-3-(hydroxymethyl)-5-oxo-1H-1,2,4-triazol-1-yl]-5-fluoro-2-[(1S)-2,2,2-trifluoro-1-methylethoxy]-benzamide], the “effect of uridine on growth inhibition” value in assay [1] (08-387, with 100 mM uridine, all concentrations tested) is “entirely rescued”; in assay [2] (913, with 100 mM uridine, all concentrations tested), “entirely rescued”. The half-maximal inhibitory concentration (IC50) is 1 to 10 nM in assay [1] (08-387, uridine rescue experiment, compound 1 alone, normoxia and hypoxia); 11.4 nM in assay [1] (72 h, 08-387, hypoxia); 4.7 nM in assay [1] (72 h, 08-387, normoxia); 1 to 10 nM in assay [2] (Homo sapiens, 913, uridine rescue experiment, compound 1 alone, normoxia and hypoxia); 6.7 nM in assay [2] (Homo sapiens, 72 h, 913, hypoxia (1% oxygen), 72 hours); 15.3 nM in assay [2] (Homo sapiens, 72 h, 913, normoxia (21% oxygen), 72 hours).
